Test [1] concerns LECs from adult human skin (HMLEC-dLyAd). Put plainly: Lymphatic endothelial cell (LEC) migration scratch assay with HFD-lymph. The format is cell-based. The conditions noted are these: 2% HFD-lymph; celecoxib 20 μM, MAZ51 5 μM. On the procedure: LECs from adult human skin (HMLEC-dLyAd) were obtained from Lonza (Australia) at the 3rd passage. Cells were thawed and expanded in a T-75 flask at a minimum density of 500,000 cells per flask. Cells were grown in EGM-2MV BulletKit™ medium (CC-3162, Lonza, Australia), which consisted of EBM-2 basal medium supplemented with an EGM-2 SingleQuots™ kit (Lonza, Australia). Flasks were incubated at 37° C. and 5% CO2, and media was changed 24 h after seeding and then every 48 h. Cells were grown to 70-80% confluence and split every 4-5 days. For all experiments, cells were seeded onto plates or coverslips pre-coated with rat tail collagen Type I (50 μg/ml) for 1 h at 37° C. Cells were allowed to grow to 100% confluence (which typically occurred 1.5-2 days after seeding in a cell culture plate) prior to the start of experiments.
Once the LECs reached confluence, the impact of lymph fluid on LEC migration was assessed using a standard scratch assay. […]
Images taken at several time points after wounding (0, 12 and 24 hours) were analyzed using the Fiji distribution of ImageJ to determine the rate of LEC migration over the area of the scratched wound. To enable quantification of the area of the scratch wound, the brightness and contrast of the images was first adjusted to improve the visibility. An outline of the wound was manually drawn and the area of the wound was quantified at each time point. […]

The target of the next test is T1, VEGF receptor (VEGFR)-3 (Homo sapiens, UniProt P35916).
T1 construct: host or cells: endothelial cell lines, including cultured lymphatic endothelial cell lines
The conditions noted are these: endothelial cell lines, including cultured lymphatic endothelial cell lines; cited from earlier work.

Results on one compound are retold here after patent publication US12611415B2, “Methods and compounds for treatment of metabolic disease” (Monash University, priority 2019, dated 2026).

T1 sequence (P35916 25-1363): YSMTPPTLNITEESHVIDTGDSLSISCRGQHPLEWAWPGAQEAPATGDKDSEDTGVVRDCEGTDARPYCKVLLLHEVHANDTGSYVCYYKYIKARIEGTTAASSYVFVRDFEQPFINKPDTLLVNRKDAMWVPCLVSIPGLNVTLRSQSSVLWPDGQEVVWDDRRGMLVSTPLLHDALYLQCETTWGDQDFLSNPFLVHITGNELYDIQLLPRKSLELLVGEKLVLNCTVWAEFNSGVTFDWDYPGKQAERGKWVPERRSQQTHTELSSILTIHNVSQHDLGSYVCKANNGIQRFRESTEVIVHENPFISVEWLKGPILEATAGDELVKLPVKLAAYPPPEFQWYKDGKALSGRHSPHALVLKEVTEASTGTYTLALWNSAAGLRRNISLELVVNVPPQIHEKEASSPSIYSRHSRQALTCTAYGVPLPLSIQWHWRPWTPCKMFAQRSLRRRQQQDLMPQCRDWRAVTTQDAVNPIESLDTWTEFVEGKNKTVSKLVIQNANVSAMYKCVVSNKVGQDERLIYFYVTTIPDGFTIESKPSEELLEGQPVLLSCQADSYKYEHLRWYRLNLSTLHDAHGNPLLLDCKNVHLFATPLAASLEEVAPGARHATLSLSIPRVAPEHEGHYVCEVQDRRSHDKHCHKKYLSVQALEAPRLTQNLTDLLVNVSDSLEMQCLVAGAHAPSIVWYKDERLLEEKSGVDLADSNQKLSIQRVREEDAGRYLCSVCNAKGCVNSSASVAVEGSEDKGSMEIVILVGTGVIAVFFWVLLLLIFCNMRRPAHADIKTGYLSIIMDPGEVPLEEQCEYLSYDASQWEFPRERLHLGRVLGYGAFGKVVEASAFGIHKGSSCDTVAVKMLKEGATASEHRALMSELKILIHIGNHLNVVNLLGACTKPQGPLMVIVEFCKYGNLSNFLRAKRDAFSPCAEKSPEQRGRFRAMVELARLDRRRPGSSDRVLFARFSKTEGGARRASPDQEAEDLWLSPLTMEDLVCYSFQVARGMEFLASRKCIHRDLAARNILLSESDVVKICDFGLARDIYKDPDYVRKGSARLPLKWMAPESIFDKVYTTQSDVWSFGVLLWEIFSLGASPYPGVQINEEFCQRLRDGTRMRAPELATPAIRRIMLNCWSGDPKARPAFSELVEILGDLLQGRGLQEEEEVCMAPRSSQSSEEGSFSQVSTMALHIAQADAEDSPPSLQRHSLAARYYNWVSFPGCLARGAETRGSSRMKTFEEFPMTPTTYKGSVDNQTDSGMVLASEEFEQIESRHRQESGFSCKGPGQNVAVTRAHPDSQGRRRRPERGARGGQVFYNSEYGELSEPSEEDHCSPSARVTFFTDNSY

Turning to `CN(C)c1ccc(/C=C2/C(=O)Nc3ccccc32)c2ccccc12` [MAZ51], in test [1], the “LEC migration induced by HFD-lymph” value is “inhibited”. Further, on VEGF receptor (VEGFR)-3, the “VEGF-C-dependent and VEGF-C-independent VEGFR-3 phosphorylation” value is reported as “potently inhibit”.
